Experimental data reported in ChEMBL document CHEMBL5465560, “Selectivity Literature for EUbOPEN Chemogenomic Library” (2024).

How the values were obtained:
[1] = biological target: Mitogen-activated protein kinase kinase kinase 4 (Homo sapiens) (UniProt Q9Y6R4); conditions: at 10 µM
[2] = biological target: Receptor tyrosine-protein kinase erbB-3 (Homo sapiens) (UniProt P21860); assay: Selectivity interaction (KinomeScan (DiscoverX)) EUB0001049a ERBB3; conditions: at 1 µM
[3] = biological target: Tyrosine-protein kinase receptor UFO (Homo sapiens) (UniProt P30530); assay: Selectivity interaction (Ambit KINOMEscan and KiNATiv profiling in Jurkat cells) EUB0000090b AXL; assay type: cell-based; conditions: at 1 µM
[4] = biological target: Cyclin-dependent kinase 18 (Homo sapiens) (UniProt Q07002); assay: Selectivity interaction (ActivX KiNativ screen (kinase selectivity in THP-1 cell lysates)) EUB0000639a CDK18; assay type: subcellular; conditions: lysate, at 0.01 µM
[5] = biological target: Ribosomal protein S6 kinase alpha-4 (Homo sapiens) (UniProt O75676); assay: Selectivity interaction (Kinase panel (Invitrogen)) EUB0000639a RPS6KA4; conditions: at 200 nM
[6] = biological target: Histone-lysine N-methyltransferase, H3 lysine-79 specific (Homo sapiens, UniProt Q8TEK3); conditions: at 1 µM
[7] = test system: Fibroblast growth factor receptor 1 (Homo sapiens), P11362 [V561M]; assay: Selectivity interaction (LanthaScreen Eu Kinase Binding Assay) EUB0001632a FGFR1; conditions: at 10 µM
[8] = biological target: Serine/threonine-protein kinase MRCK alpha (Homo sapiens) (UniProt Q5VT25); assay: Selectivity interaction (KinomeScan (DiscoverX)) EUB0000695a CDC42BPA; conditions: at 100 nM
[9] = biological target: SRSF protein kinase 2 (Homo sapiens) (UniProt P78362); assay: Selectivity interaction (KinomeScan (DiscoverX)) EUB0000595a SRPK2; conditions: at 10 µM
[10] = biological target: Ephrin type-A receptor 7 (Homo sapiens) (UniProt Q15375); assay: Selectivity interaction (KinomeScan (DiscoverX)) EUB0000595a EPHA7; conditions: at 10 µM
[11] = biological target: T1, Calcium/calmodulin-dependent protein kinase type IV (Homo sapiens) (UniProt Q16566); assay: Selectivity interaction (KinomeScan (DiscoverX)) EUB0000092b CAMK4; conditions: at 10 µM
T1 sequence (whole entry): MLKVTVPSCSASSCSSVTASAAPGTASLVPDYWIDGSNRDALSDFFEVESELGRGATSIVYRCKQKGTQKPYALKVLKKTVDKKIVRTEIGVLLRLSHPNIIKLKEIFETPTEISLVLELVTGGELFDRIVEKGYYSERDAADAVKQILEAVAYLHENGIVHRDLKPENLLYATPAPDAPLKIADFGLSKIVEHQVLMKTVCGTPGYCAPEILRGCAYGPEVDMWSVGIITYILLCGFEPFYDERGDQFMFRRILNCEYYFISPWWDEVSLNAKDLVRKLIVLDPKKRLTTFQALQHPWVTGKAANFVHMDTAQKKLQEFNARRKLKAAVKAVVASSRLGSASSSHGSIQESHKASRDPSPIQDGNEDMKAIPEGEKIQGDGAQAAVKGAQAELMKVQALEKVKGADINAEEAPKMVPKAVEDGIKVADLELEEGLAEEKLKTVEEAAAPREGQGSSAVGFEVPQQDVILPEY

[12] = biological target: Serine/threonine-protein kinase PAK 6 (Homo sapiens) (UniProt Q9NQU5); assay: Selectivity interaction (Upstate Kinase Profiler service (Millipore)) EUB0000056c PAK6; conditions: at 1 µM
[13] = biological target: Leukocyte tyrosine kinase receptor (Homo sapiens, UniProt P29376); assay: Selectivity interaction (KinomeScan (DiscoverX)) EUB0000618a LTK; conditions: at 10 µM
[14] = biological target: T2, Receptor-interacting serine/threonine-protein kinase 4 (Homo sapiens) (UniProt P57078); assay: Selectivity interaction (KinomeScan (DiscoverX)) EUB0000618a RIPK4; conditions: at 10 µM
T2 sequence (whole entry): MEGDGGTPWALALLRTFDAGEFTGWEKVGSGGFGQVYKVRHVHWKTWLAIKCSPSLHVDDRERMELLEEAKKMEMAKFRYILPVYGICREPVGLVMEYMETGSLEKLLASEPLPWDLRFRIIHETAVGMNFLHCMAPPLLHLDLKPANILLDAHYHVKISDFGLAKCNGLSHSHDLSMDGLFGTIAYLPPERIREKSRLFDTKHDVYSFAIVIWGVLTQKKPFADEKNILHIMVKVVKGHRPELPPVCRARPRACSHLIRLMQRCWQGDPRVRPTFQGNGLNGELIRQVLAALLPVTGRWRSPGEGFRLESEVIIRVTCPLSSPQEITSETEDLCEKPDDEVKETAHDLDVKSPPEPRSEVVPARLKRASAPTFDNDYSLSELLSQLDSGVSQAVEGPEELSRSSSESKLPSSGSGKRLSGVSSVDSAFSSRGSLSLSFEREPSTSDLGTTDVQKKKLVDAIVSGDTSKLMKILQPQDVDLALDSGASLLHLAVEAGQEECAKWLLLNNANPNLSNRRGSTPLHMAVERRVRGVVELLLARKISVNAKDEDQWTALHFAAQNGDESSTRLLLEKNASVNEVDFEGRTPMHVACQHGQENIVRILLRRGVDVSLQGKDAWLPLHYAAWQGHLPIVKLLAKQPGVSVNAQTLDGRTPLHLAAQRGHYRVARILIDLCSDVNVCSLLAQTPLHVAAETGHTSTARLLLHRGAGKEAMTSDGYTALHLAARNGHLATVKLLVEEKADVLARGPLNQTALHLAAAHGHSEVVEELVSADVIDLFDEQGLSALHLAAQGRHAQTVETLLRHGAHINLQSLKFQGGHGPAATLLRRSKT

[15] = biological target: Receptor-interacting serine/threonine-protein kinase 2 (Homo sapiens, UniProt O43353); assay: Selectivity interaction (KinomeScan (DiscoverX)) EUB0000607a RIPK2; conditions: at 10 µM
[16] = biological target: T3, Serine/threonine-protein kinase 3 (Homo sapiens) (UniProt Q13188); assay: Selectivity interaction (Kinase panel (KiNativ target engagement assay in Jurkat cells)) EUB0001635a STK3; assay type: cell-based; conditions: Selectivity number of off-targets 0.0, Selectivity number of targets 233.0, Source Knowledge https://www.sciencedirect.com/science/article/pii/S2451945619300674?via%3Dihub, at 1 µM
T3 sequence (whole entry): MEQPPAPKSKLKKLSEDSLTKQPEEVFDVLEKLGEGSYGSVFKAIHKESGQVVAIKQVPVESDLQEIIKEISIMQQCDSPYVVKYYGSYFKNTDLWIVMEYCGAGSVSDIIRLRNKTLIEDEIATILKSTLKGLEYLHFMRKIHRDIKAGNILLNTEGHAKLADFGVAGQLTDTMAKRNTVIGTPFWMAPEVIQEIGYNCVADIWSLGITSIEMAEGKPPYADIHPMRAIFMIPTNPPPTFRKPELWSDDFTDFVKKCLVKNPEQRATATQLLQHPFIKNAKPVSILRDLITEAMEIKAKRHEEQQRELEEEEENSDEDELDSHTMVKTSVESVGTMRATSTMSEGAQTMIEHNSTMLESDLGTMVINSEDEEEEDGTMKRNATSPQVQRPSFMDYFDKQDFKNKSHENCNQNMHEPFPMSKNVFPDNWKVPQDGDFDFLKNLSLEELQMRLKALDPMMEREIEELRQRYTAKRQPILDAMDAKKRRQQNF

Cyclin-dependent kinase 18 (Homo sapiens), sequence (Q07002 whole entry): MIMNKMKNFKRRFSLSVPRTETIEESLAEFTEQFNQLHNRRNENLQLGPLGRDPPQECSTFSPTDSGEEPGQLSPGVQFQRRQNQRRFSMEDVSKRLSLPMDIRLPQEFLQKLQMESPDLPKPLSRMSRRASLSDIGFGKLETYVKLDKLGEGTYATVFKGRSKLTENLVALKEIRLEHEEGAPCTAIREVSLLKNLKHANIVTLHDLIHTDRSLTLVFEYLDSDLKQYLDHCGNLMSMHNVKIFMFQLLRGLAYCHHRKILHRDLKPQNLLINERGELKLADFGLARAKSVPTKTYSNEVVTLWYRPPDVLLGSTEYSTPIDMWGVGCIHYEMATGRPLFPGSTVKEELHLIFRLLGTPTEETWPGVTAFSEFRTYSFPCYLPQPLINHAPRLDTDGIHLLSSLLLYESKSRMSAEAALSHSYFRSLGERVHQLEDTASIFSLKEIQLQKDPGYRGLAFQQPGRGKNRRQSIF
Ephrin type-A receptor 7 (Homo sapiens), sequence (Q15375 28-998 limits assumed): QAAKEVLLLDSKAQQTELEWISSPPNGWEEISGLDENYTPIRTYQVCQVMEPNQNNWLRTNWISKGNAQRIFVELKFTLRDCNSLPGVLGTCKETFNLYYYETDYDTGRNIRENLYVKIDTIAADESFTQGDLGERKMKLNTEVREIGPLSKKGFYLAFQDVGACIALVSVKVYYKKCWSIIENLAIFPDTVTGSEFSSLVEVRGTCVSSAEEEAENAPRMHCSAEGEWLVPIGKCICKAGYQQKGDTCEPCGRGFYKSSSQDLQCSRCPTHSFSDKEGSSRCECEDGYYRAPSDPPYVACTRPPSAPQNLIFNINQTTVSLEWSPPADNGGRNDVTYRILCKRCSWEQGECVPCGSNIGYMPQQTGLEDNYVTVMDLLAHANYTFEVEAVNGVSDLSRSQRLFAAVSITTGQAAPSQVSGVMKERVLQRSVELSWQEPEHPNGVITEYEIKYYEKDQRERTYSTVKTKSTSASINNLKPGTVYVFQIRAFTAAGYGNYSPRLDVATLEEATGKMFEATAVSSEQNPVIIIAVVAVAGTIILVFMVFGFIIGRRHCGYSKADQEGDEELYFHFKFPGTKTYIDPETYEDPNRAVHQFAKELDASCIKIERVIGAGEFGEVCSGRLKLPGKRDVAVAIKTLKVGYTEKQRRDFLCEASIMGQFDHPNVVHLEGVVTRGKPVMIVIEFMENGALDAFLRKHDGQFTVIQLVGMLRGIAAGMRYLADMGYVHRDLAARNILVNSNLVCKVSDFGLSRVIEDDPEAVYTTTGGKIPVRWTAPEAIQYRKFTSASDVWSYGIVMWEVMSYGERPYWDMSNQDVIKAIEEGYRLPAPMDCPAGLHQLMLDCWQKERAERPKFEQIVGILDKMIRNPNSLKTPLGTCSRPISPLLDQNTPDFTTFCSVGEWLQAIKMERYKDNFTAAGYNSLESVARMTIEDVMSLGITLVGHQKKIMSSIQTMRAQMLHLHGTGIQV
Receptor tyrosine-protein kinase erbB-3 (Homo sapiens), sequence (P21860 whole entry): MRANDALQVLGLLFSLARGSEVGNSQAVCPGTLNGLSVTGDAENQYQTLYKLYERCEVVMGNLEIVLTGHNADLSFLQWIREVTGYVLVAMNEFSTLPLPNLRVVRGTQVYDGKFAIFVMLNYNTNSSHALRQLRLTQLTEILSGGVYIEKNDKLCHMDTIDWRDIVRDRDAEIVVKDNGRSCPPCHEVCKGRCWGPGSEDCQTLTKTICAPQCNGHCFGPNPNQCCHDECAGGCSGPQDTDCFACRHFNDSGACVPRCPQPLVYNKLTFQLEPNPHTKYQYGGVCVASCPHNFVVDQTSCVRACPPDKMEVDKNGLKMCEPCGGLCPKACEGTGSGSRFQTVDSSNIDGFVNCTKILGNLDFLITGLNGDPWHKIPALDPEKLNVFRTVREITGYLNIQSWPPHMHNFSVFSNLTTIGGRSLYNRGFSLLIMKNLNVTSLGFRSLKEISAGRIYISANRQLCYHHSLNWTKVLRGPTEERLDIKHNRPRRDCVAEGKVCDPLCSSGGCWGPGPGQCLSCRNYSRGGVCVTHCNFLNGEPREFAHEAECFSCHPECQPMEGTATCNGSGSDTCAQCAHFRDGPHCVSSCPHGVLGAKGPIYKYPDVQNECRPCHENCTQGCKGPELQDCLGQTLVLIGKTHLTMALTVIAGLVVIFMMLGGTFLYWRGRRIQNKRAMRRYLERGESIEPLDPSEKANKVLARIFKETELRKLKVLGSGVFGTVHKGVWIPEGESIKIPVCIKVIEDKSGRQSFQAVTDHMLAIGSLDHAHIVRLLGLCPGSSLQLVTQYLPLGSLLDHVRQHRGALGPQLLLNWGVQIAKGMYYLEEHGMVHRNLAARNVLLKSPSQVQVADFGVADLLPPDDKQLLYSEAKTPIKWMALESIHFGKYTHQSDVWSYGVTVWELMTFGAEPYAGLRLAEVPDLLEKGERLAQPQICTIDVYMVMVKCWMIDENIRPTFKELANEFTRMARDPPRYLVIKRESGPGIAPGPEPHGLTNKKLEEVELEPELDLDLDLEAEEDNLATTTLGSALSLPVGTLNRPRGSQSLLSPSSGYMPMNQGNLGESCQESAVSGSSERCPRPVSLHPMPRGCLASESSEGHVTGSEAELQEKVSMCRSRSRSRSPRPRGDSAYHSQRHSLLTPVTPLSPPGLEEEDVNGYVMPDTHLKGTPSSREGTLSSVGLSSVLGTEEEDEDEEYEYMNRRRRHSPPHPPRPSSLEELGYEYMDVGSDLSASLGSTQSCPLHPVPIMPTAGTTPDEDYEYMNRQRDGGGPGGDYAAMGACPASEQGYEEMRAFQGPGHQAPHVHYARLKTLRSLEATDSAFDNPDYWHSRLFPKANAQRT
Histone-lysine N-methyltransferase, H3 lysine-79 specific, sequence (Q8TEK3 whole entry, looked up): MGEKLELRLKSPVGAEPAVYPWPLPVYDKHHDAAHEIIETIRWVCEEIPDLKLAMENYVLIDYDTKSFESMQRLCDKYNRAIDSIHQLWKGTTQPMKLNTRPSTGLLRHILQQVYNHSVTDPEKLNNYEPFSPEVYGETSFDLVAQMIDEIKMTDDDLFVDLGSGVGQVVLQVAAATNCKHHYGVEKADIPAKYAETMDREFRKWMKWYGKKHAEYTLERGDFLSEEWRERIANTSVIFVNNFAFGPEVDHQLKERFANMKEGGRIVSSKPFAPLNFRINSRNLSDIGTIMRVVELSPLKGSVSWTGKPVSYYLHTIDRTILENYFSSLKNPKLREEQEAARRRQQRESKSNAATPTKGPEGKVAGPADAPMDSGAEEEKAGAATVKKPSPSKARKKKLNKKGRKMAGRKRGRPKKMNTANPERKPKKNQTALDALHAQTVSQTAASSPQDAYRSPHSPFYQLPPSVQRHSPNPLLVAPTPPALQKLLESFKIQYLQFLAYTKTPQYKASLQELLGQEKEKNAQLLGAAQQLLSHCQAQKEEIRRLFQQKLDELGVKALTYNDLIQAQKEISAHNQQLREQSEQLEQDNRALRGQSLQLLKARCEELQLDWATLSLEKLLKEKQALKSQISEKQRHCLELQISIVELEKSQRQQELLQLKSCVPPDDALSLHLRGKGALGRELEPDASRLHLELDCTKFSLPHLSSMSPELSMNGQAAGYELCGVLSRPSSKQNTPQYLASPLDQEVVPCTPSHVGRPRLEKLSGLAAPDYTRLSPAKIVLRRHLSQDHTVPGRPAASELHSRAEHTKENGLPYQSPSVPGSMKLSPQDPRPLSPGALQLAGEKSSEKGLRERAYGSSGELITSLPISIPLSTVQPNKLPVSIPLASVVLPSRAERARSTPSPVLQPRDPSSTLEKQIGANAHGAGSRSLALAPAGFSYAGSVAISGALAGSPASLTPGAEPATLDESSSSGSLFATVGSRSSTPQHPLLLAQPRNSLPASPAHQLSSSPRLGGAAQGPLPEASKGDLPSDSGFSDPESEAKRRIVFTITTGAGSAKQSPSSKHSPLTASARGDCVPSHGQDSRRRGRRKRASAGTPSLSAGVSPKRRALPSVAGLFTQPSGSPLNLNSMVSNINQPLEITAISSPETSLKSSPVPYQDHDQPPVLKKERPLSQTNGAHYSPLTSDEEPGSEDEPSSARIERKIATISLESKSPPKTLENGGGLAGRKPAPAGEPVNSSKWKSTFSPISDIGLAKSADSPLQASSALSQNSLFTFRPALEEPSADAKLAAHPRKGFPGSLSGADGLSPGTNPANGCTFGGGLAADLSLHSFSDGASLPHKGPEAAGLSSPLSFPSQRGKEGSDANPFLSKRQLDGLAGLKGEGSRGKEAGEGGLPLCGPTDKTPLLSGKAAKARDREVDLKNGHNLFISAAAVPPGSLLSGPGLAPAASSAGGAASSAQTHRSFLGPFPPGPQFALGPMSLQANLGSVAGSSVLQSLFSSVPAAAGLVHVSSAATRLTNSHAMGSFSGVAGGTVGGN
Serine/threonine-protein kinase PAK 6 (Homo sapiens), sequence (Q9NQU5 whole entry, looked up): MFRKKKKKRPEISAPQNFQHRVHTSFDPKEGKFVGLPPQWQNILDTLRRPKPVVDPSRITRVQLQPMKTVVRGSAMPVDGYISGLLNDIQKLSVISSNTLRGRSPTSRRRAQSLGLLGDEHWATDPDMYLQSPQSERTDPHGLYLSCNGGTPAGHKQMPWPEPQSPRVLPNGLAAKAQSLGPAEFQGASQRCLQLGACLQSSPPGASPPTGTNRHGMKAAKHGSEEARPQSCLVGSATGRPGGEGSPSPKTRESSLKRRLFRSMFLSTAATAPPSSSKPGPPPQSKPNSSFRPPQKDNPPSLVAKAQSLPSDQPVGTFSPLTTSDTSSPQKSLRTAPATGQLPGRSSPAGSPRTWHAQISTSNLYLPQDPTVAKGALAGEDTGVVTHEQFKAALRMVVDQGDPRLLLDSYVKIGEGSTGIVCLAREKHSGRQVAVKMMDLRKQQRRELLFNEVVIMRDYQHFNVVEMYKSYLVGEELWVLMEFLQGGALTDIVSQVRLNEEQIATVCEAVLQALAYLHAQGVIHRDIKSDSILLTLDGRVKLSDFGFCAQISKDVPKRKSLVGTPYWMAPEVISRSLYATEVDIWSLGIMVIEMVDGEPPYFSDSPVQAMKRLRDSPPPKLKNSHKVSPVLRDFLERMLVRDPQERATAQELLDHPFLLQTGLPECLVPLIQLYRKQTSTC

For `Cc1cc([C@@H](C)Nc2ccccc2C(=O)O)c2nc(N3CCOCC3)cc(=O)n2c1` [AZD-6482], the % of control [1] was 100%.

`COc1cc(Nc2nc(C)cc(-c3cnn4nc(OC)ccc34)n2)cc(C(F)(F)F)c1` gave a % of control [2] of 100%.

`CN(C)C/C=C/C(=O)Nc1ccc(C(=O)N2CCCC(Nc3ncc(Cl)c(-c4c[nH]c5ccccc45)n3)C2)cc1` (stereo unspecified) showed a % of control [3] of 92%.

Molecule `CC[C@@H]1[C@H](F)C(=O)N[C@@H]1COc1nccc2cc(C(N)=O)c(OC)cc12` [ZIMLOVISERTIB] has a % of inhibition [4] of 16.3% and a % of inhibition [5] of 4.43%.

In the case of `CNCCN1CCC(c2cc(CN(C)C(=O)c3cccc(Oc4ccccc4)c3)ccn2)CC1`, the % activity [6] is reported as greater than 90%.

Work on `Cn1cc(-n2cnc3c(NCc4nc5cc(Cl)c(Cl)cc5[nH]4)nc(N4CCOCC4)nc32)cn1` yielded a % of inhibition [7] of -8.96%.

`Cc1cc(F)c(C(=O)Nc2cccc(-c3nncn3C(C)C)n2)cc1-n1cnc(C2CC2)c1` gave a % of control [8] of 100%.

For `COCC(=O)NC/C=C/c1ccc2ncnc(Nc3ccc(Oc4ccc(C)nc4)c(C)c3)c2c1` [CP-724714], the % of control [9] was 92% and the % of control [10] was 100%.

Molecule `CCC(=O)N1CCN(c2ccc(-n3c(=O)ccc4cnc5ccc(-c6cnc7ccccc7c6)cc5c43)cc2C(F)(F)F)CC1` has a % of control [11] of 90%.

In the case of `Cc1ccc(-c2ccc3c(ccc4sc5c(c43)NC[C@@H](C)NC5=O)n2)cn1`, the % of inhibition [12] is reported as 4%.

With `O[C@H]1CC[C@H](Nc2ncc3nc(Nc4c(F)cc(F)cc4F)n([C@H]4CCOC4)c3n2)CC1` the % of control [13] was 100% and the % of control [14] was 88%.

Work on `CNC(=O)Nc1ccc(-c2nc(N3CC4CCC(C3)O4)c3cnn(C4CCC5(CC4)OCCO5)c3n2)cc1` yielded a % of control [15] of 71%.

`C=CC(=O)Nc1ccc(C(=O)Nc2[nH]nc3c2CN(C(=O)N[C@H](CN(C)C)c2ccccc2)C3(C)C)cc1` showed a % of engagement [16] of 1%.
